Drawing on patent US10988433B2, “Cyclohexyl GPR40 agonists for the treatment of type II diabetes” (Janssen Pharmaceutica NV, priority 2016, dated 2021), this text covers EC50 for 26 compounds.

Experiment [1] addresses T1, human GPR40 (Homo sapiens, UniProt O14842).
T1 construct: expressed in transfected cells
The experiment in a line: GPR40 calcium flux assay, HEK293 cells stably expressing human GPR40. It is filed as cell-based. The settings on record: transfected HEK293 cells stably expressing human GPR40, Fluo 8 dye, read-out: hGPR40 Ca2+ Assay EC50. As to the method:
(§1) Compounds were tested in a calcium flux assay using transfected HEK293 cells stably expressing either human GPR40 or rat GPR40. Human GPR40 expressing cells were cultured in DMEM-High Glucose media supplemented with 10% fetal bovine serum, 1×L-Glutamine, 1×Penicillin/Streptomycin and 500 μg/mL G418. Rat GPR40 expressing cells were cultured in DMEM-High Glucose media supplemented with 10% fetal bovine serum and 1 μg/mL puromycin. Cells were plated into poly-D-lysine coated 384-well plates and cultured overnight in a 37° C. humidified tissue culture incubator under 5% CO2/[…] atmosphere. On the day of the experiment, the culture media was replaced with assay buffer (HBSS, 20 mM HEPES, 0.1% BSA) and the cells incubated at 37° C. for 1 h. Calcium-sensitive fluorescent dye (Fluo 8 No-Wash Calcium Dye, ABD Bioquest) was then added and the cells incubated for another 30 min at 37° C. followed by 15 min at room temperature while protected from the light. The cell plate and a plate of diluted compounds of Formula (I) were loaded into a fluorescent plate reader that added compounds onto the cells while measuring the fluorescence intensity of each well. The plate reader recorded fluorescence intensity at 1 second intervals for 8 min and provided the data for analysis in an Excel format. EC50 values were calculated using Prism (GraphPad) software.

Experiment [2] deals with T2, rat GPR40 (Rattus norvegicus, UniProt Q8K3T4).
T2 construct: expressed in transfected cells
T2 sequence (Q8K3T4 whole entry): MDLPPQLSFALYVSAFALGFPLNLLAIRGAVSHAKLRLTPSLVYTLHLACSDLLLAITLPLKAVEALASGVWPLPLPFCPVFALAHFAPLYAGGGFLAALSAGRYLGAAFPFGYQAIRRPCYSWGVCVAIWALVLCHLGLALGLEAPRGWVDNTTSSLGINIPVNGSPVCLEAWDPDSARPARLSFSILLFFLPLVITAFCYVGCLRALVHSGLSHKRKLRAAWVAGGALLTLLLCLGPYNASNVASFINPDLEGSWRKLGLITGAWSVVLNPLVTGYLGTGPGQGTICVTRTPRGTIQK
In words: GPR40 calcium flux assay, HEK293 cells stably expressing rat GPR40. It is filed as cell-based. The settings on record: transfected HEK293 cells stably expressing rat GPR40, Fluo 8 dye, read-out: rGPR40 Ca2+ Assay EC50. As to the method:
as §1
A general note: A change in cytosolic calcium serves as a functional read-out for many receptors and channels.

T1 sequence (O14842 whole entry): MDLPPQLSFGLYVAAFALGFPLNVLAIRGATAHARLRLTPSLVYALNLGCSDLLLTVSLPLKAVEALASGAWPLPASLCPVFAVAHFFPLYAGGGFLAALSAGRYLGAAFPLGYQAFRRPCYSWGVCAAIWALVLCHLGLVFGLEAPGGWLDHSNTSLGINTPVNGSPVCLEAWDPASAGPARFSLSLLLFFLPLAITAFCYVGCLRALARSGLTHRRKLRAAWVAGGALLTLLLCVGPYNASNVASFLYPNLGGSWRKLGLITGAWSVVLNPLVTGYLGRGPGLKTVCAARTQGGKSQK

For the compound `COc1cc([C@]2(OC)CC[C@H](COc3cc([C@@H](CC(=O)O)C4CC4)ccn3)CC2)c(F)cn1` [Cpd 45, (S)-3-Cyclopropyl-3-(2-(((1r,4S)-4-(5-fluoro-2-methoxypyridin-4-yl)-4-methoxycyclohexyl)methoxy)pyridin-4-yl)propanoic acid], the EC50 was 0.258 µM in experiment [1] and 0.855 µM in experiment [2].

In the case of `COc1ccc(F)c([C@H]2CC[C@H](COc3cccc([C@H](CC(=O)O)C4CC4)c3)CC2)c1` [Cpd 38, (R)-3-cyclopropyl-3-(3-(((1r,4R)-4-(2-fluoro-5-methoxyphenyl)cyclohexyl)methoxy)phenyl)propanoic acid], the EC50 is 0.0062 µM in experiment [1] and 0.0156 µM in experiment [2].

Take `CC#CC(CC(=O)O)c1cccc(OC[C@H]2CC[C@@H](c3cc(OC)ccc3F)CC2)c1` (stereo partly shown) [Cpd 42, 3-(3-(((1 s,4s)-4-(2-Fluoro-5-methoxyphenyl)cyclohexyl)methoxy)phenyl)hex-4-ynoic acid]: the EC50 was found to be 3.1 µM in experiment [1] and 0.401 µM in experiment [2].

Take `COc1cc([C@H]2CC[C@@H](COc3ccnc(C(CC(=O)O)C4CC4)c3)CC2)c(F)cn1` (stereo partly shown) [Cpd 32, 3-Cyclopropyl-3-(4-(((1s,4s)-4-(5-fluoro-2-methoxypyridin-4-yl)cyclohexyl)methoxy)pyridine-2-yl)propanoic acid]: the EC50 is 0.059 µM in experiment [1] and 0.256 µM in experiment [2].

With `COc1ccc(F)c([C@H]2CC[C@H](COc3cccc([C@H](C4CC4)[C@H](C)C(=O)O)c3)CC2)c1` [Cpd 52, (2S,3R)-3-cyclopropyl-3-(3-(((1r,4R)-4-(2-fluoro-5-methoxyphenyl)cyclohexyl)methoxy)phenyl)-2-methylpropanoic acid], the 50% effective concentration (EC50) in experiment [1] was 0.0002 µM; in experiment [2] it was 0.0004 µM.

Take `COc1cc(C2CCC(COc3cccc([C@@H](CC(=O)O)C4CC4)c3)C(CC(C)C)C2)c(F)cn1` (stereo partly drawn) [Cpd 30, (3S)-3-Cyclopropyl-3-(3-((4-(5-fluoro-2-methoxypyridin-4-yl)-2-isobutylcyclohexyl)methoxy)phenyl)propanoic acid]: the EC50 in experiment [1] is 0.0021 µM; in experiment [2], 0.0294 µM.

Consider `COc1ccc(F)c([C@H]2CC[C@@H](COc3cc(C(CC(=O)O)C4CC4)ccn3)CC2)c1` (stereo partly shown) [Cpd 5, 3-Cyclopropyl-3-(2-(((1 s,4s)-4-(2-fluoro-5-methoxyphenyl)cyclohexyl)methoxy)pyridin-4-yl)propanoic acid], for which the values for the EC50 in experiment [1] and in experiment [2] were 0.0756 µM and 0.146 µM, respectively.

`C[C@](F)(C(=O)O)[C@H](c1cccc(OC[C@H]2CC[C@H](c3cc(OC(F)(F)F)ccc3F)CC2)c1)C1CC1` [Cpd 74, (2R,3S)-3-Cyclopropyl-2-fluoro-3-(3-(((1r,4S)-4-(2-fluoro-5-(trifluoromethoxy)phenyl)cyclohexyl)methoxy)phenyl)-2-methylpropanoic acid]: the EC50 is 0.0141 µM in experiment [1] and 0.0162 µM in experiment [2].

On to `COc1ccc(F)c([C@]2(O)CC[C@@H](COc3cccc([C@@H](CC(=O)O)C4CC4)c3)CC2)c1` [Cpd 3, (S)-3-Cyclopropyl-3-(3-(((1s,4R)-4-(2-fluoro-5-methoxyphenyl)-4-hydroxycyclohexyl)methoxy)phenyl)propanoic acid], for which the values for the EC50 in experiment [1] and in experiment [2] were 0.0248 µM and 0.16 µM, respectively.

For `CCc1ccc(Cl)c(C2CCC(COc3cccc([C@H](C4CC4)C(C)(F)C(=O)O)c3)CC2)c1` (stereo partly drawn) [Cpd 65, (3S)-3-(3-((4-(2-Chloro-5-ethylphenyl)cyclohexyl)methoxy)phenyl)-3-cyclopropyl-2-fluoro-2-methylpropanoic acid], the values for the EC50 in experiment [1] and in experiment [2] were 0.00059 µM and 0.00175 µM, respectively.

Regarding `CC(F)(C(=O)O)[C@H](c1cccc(OCC2CCC(c3cc(F)ncc3F)CC2)c1)C1CC1` (mixture of isomers) [Cpd 67, (3S)-3-Cyclopropyl-3-(3-((4-(2,5-difluoropyridin-4-yl)cyclohexyl)methoxy)phenyl)-2-fluoro-2-methylpropanoic acid], the EC50 is 0.0017 µM in experiment [1] and 0.012 µM in experiment [2].

Turning to `COc1ccc(F)c([C@H]2CC[C@H](COc3cccc([C@@H](Cc4nnn[nH]4)C4CC4)c3)CC2)c1` [Cpd 17, 5-((S)-2-Cyclopropyl-2-(3-(((1r,4S)-4-(2-fluoro-5-methoxyphenyl)cyclohexyl)methoxy)phenyl)ethyl)-1H-tetrazole], the EC50 was found to be 0.0443 µM in experiment [1] and 0.388 µM in experiment [2].

On to `COc1cc([C@]2(OC)CC[C@@H](COc3cc([C@@H](CC(=O)O)C4CC4)ccn3)CC2)c(F)cn1` [Cpd 44, (S)-3-cyclopropyl-3-(2-(((1s,4R)-4-(5-fluoro-2-methoxypyridin-4-yl)-4-methoxycyclohexyl)methoxy)pyridin-4-yl) propanoic acid], for which the EC50 in experiment [1] worked out at 0.0099 µM; in experiment [2], 0.029 µM.

Regarding `COc1ccc(F)c([C@H]2CC[C@H](COc3cccc([C@H](C4CC4)C(C)(F)C(=O)O)c3)CC2)c1` (stereo partly drawn) [Cpd 58, (3S)-3-Cyclopropyl-2-fluoro-3-(3-(((1r,4S)-4-(2-fluoro-5-methoxyphenyl)cyclohexyl)methoxy)phenyl)-2-methylpropanoic acid], the concentration giving a half-maximal response (EC50) in experiment [1] was found to be 0.0003 µM; in experiment [2] it was 0.00023 µM.

Consider `CCc1ccc(F)c([C@H]2CC[C@H](COc3cccc([C@H](C4CC4)[C@H](C)C(=O)O)c3)CC2)c1` [Cpd 57, (2S,3R)-3-cyclopropyl-3-(3-(((1r,4R)-4-(5-ethyl-2-fluorophenyl)cyclohexyl)methoxy)phenyl)-2-methylpropanoic acid], for which the figures for the EC50 in experiment [1] and in experiment [2] were 0.0005 µM and 0.0012 µM, respectively.

Consider `COc1cc([C@H]2CC[C@H](COc3cccc([C@H](C4CC4)[C@](C)(F)C(=O)O)c3)CC2)c(F)cn1` [Cpd 63], for which the figures for the EC50 in experiment [1] and in experiment [2] were 0.0326 µM and 0.0867 µM, respectively.

Regarding `CCOc1cc([C@H]2CC[C@@H](COc3cc([C@@H](CC(=O)O)C4CC4)ccn3)CC2)c(F)cn1` [Cpd 48, (S)-3-cyclopropyl-3-(2-(((1s,4R)-4-(2-ethoxy-5-fluoropyridin-4-yl)cyclohexyl)methoxy)pyridin-4-yl)propanoic acid], the EC50 in experiment [1] turned out to be 0.212 µM; in experiment [2], 0.676 µM.

Turning to `COc1ccc(F)c([C@H]2CC[C@H](COc3cccc([C@H](C4CC4)C(C)C(=O)O)c3)CC2)c1` (single isomer, unassigned) [Cpd 51], the EC50 worked out at 0.0022 µM in experiment [1] and 0.0049 µM in experiment [2].

With `COc1ccc(F)c([C@H]2CC[C@H](COc3cc([C@H](C4CC4)C(C)(F)C(=O)O)ccn3)CC2)c1` (stereo partly drawn) [Cpd 79, (3S)-3-Cyclopropyl-2-fluoro-3-(2-(((1r,4S)-4-(2-fluoro-5-methoxyphenyl)cyclohexyl)methoxy)pyridin-4-yl)-2-methylpropanoic acid], the EC50 was 0.013 µM in experiment [1] and 0.028 µM in experiment [2].

In the case of `COc1ccc(F)c([C@H]2CC[C@H](COc3cccc(C(CC(=O)O)C4CC4)n3)CC2)c1` (mixture of isomers) [Cpd 13, 3-Cyclopropyl-3-(6-(((1r,4r)-4-(2-fluoro-5-methoxyphenyl)cyclohexyl)methoxy)pyridin-2-yl)propanoic acid], the EC50 amounted to 0.0327 µM in experiment [1] and 0.143 µM in experiment [2].

For the compound `COc1ccc(C)c(C2CCC(COc3cccc([C@H](C4CC4)C(C)(F)C(=O)O)c3)CC2)c1` (stereo partly drawn) [Cpd 70, (3S)-3-Cyclopropyl-2-fluoro-3-(3-((4-(5-methoxy-2-methylphenyl)cyclohexyl)methoxy)phenyl)-2-methylpropanoic acid], the EC50 is 0.00016 µM in experiment [1] and 0.00015 µM in experiment [2].

Consider `COc1cc([C@H]2CC[C@H](COc3cc([C@H](C4CC4)C(C)(F)C(=O)O)ccn3)CC2)c(F)cn1` (stereo partly drawn) [Cpd 80, (3S)-3-Cyclopropyl-2-fluoro-3-(2-(((1r,4S)-4-(5-fluoro-2-methoxypyridin-4-yl)cyclohexyl)methoxy)pyridin-4-yl)-2-methylpropanoic acid], for which the EC50 in experiment [1] came out at 0.079 µM; in experiment [2], 0.22 µM.

Take `COc1ccc(F)c([C@H]2CC[C@@H](COc3cc([C@H](CC(=O)O)C4CC4)ccn3)CC2)c1` [Cpd 41, (R)-3-Cyclopropyl-3-(2-(((1s,4S)-4-(2-fluoro-5-methoxyphenyl)cyclohexyl)methoxy)pyridin-4-yl)propanoic acid]: the EC50 in experiment [1] was determined as 0.018 µM; in experiment [2] it was 0.043 µM.

For the compound `COc1cc([C@H]2CC[C@H](COc3cccc([C@@H](CC(=O)O)C4CC4)c3)CC2)c(F)cn1` [Cpd 9, (S)-3-Cyclopropyl-3-(3-(((1r,4S)-4-(5-fluoro-2-methoxypyridin-4-yl)cyclohexyl)methoxy)phenyl)propanoic acid], the EC50 in experiment [1] came to 0.0005 µM; in experiment [2], 0.0028 µM.

As for `COc1ccc(F)c([C@H]2CC[C@H](COc3cc([C@H](CC(=O)O)C4CC4)ccn3)CC2)c1` [Cpd 26, (R)-3-cyclopropyl-3-(2-(((1r,4r)-4-(2-fluoro-5-methoxyphenyl)cyclohexyl)methoxy)pyridin-4-yl)propanoic acid], the EC50 came out at 0.0109 µM in experiment [1] and 0.0198 µM in experiment [2].

As to `COc1ccc(F)c([C@H]2CC[C@H](CCc3cccc([C@H](C4CC4)C(C)(F)C(=O)O)c3)CC2)c1` (stereo partly drawn) [Cpd 73, (3S)-3-Cyclopropyl-2-fluoro-3-(3-(2-((1r,4R)-4-(2-fluoro-5-methoxyphenyl)cyclohexyl)ethyl)phenyl)-2-methylpropanoic acid], the EC50 came out at 0.00022 µM in experiment [1] and 0.00046 µM in experiment [2].

For orientation: EC50 means the concentration at which the effect is half-maximal.
